Experimental data published in paper PMC2375326, “In vitro evaluation of amino acid prodrugs of novel antitumour 2-(4-amino-3-methylphenyl)benzothiazoles” (British Journal of Cancer, 2002).

Assays:
CAKI-1 = assay: NCI in vitro cytotoxicity assay (SRB), CAKI-1; type: cell-based; details: Homo sapiens, 48 h exposure, sulforhodamine B assay, mean graph, read-out: Log10 GI50 (CAKI-1) (converted)
Protocol: (§1) Cell culture and drug application procedures have been described previously ([Boyd and Paull, 1995]). Briefly, cell lines were inoculated into a series of 96-well microtiter plates, with varied seeding densities depending on growth characteristics of each cell line. Following a 24 h drug free incubation, test agents were added at five 10-fold dilutions with a maximum concentration of 100 μM. Cellular protein levels were determined after 48 h drug exposure by sulphorhodamine B colorimetry.

MOLT-4 = assay: NCI in vitro cytotoxicity assay (SRB), MOLT-4; type: cell-based; details: Homo sapiens, 48 h exposure, sulforhodamine B assay, mean graph, read-out: Log10 GI50 (MOLT-4) (converted)
Protocol: as §1

HS 578T = assay: NCI in vitro cytotoxicity assay (SRB), HS 578T; type: cell-based; details: Homo sapiens, 48 h exposure, sulforhodamine B assay, mean graph, read-out: Log10 GI50 (HS 578T) (converted)
Protocol: as §1

HOP-92 = assay: NCI in vitro cytotoxicity assay (SRB), HOP-92; type: cell-based; details: Homo sapiens, 48 h exposure, sulforhodamine B assay, mean graph, read-out: Log10 GI50 (HOP-92) (converted)
Protocol: as §1

MDA-MB-231/ATCC = assay: NCI in vitro cytotoxicity assay (SRB), MDA-MB-231/ATCC; type: cell-based; details: Homo sapiens, 48 h exposure, sulforhodamine B assay, mean graph, read-out: Log10 GI50 (MDA-MB-231/ATCC) (converted)
Protocol: as §1

IGROV1 = assay: NCI in vitro cytotoxicity assay (SRB), IGROV1; type: cell-based; details: Homo sapiens, IGROV-1; 48 h exposure, sulforhodamine B assay, mean graph; read-out: Log10 GI50 (IGROV1) (converted)
Protocol: as §1

ACHN = assay: NCI in vitro cytotoxicity assay (SRB), ACHN; type: cell-based; details: Homo sapiens, 48 h exposure, sulforhodamine B assay, mean graph, read-out: Log10 GI50 (ACHN) (converted)
Protocol: as §1

KM12 = assay: NCI in vitro cytotoxicity assay (SRB), KM12; type: cell-based; details: Homo sapiens, 48 h exposure, sulforhodamine B assay, mean graph, read-out: Log10 GI50 (KM12) (converted)
Protocol: as §1

SF-295 = assay: NCI in vitro cytotoxicity assay (SRB), SF-295; type: cell-based; details: Homo sapiens, 48 h exposure, sulforhodamine B assay, mean graph, read-out: Log10 GI50 (SF-295) (converted)
Protocol: as §1

COLO 205 = assay: NCI in vitro cytotoxicity assay (SRB), COLO 205; type: cell-based; details: Homo sapiens, 48 h exposure, sulforhodamine B assay, mean graph, read-out: Log10 GI50 (COLO 205) (converted)
Protocol: as §1

HCT-116 = assay: NCI in vitro cytotoxicity assay (SRB), HCT-116; type: cell-based; details: Homo sapiens, 48 h exposure, sulforhodamine B assay, mean graph, read-out: Log10 GI50 (HCT-116) (converted)
Protocol: as §1

[1] = parameters: method as in Bradshaw et al, 2002; details: in vivo, compound 2 regenerated from lysylamide prodrug compound 2b; ref Bradshaw et al, 2002; cited from earlier work
OVCAR-3 = assay: NCI in vitro cytotoxicity assay (SRB), OVCAR-3; type: cell-based; details: Homo sapiens, 48 h exposure, sulforhodamine B assay, mean graph, read-out: Log10 GI50 (OVCAR-3) (converted)
Protocol: as §1

SR = assay: NCI in vitro cytotoxicity assay (SRB), SR; type: cell-based; details: Homo sapiens, 48 h exposure, sulforhodamine B assay, mean graph, read-out: Log10 GI50 (SR) (converted)
Protocol: as §1

NCI-H226 = assay: NCI in vitro cytotoxicity assay (SRB), NCI-H226; type: cell-based; details: Homo sapiens, 48 h exposure, sulforhodamine B assay, mean graph, read-out: Log10 GI50 (NCI-H226) (converted)
Protocol: as §1

SNB-19 = assay: NCI in vitro cytotoxicity assay (SRB), SNB-19; type: cell-based; details: Homo sapiens, 48 h exposure, sulforhodamine B assay, mean graph, read-out: Log10 GI50 (SNB-19) (converted)
Protocol: as §1

SN12C = assay: NCI in vitro cytotoxicity assay (SRB), SN12C; type: cell-based; details: Homo sapiens, 48 h exposure, sulforhodamine B assay, mean graph, read-out: Log10 GI50 (SN12C) (converted)
Protocol: as §1

NCI-H522 = assay: NCI in vitro cytotoxicity assay (SRB), NCI-H522; type: cell-based; details: Homo sapiens, 48 h exposure, sulforhodamine B assay, mean graph, read-out: Log10 GI50 (NCI-H522) (converted)
Protocol: as §1

[2] = test system: breast and ovarian xenografts; parameters: method as in Bradshaw et al, 2002; details: in vivo; ref Bradshaw et al, 2002; cited from earlier work
HCC-2998 = assay: NCI in vitro cytotoxicity assay (SRB), HCC-2998; type: cell-based; details: Homo sapiens, 48 h exposure, sulforhodamine B assay, mean graph, read-out: Log10 GI50 (HCC-2998) (converted)
Protocol: as §1

[3] = test system: CYP1A1 activity (EROD) in IGROV-1 cells; assay: EROD activity in homogenates of treated IGROV-1 cells; type: cell-based, human; details: IGROV-1 cells treated 24 h; biphasic dose response
Protocol: A sensitive and rapid fluorometric assay was used to measure EROD activity ([Burke et al, 1994]). Incubation mixtures (total 1 ml) consisted of 100 mM Tris-HCl (pH 7.4), 50 μM MgCl2, 100 μM 7-ethoxyresorufin and 100 μl cell homogenate. Homogenates were prepared following treatment of cells for 24 h with compounds 1, 2, 2a, 2b, 3, 3a, 3b, 4, 4a and 4b or vehicle alone and protein content determined (n=3). Thus induction of ethoxyresorufin O-deethylation by agents under study, catalysed by CYP1A1 activity, could be determined. Alternatively, microsomes expressing recombinant CYP1A1 (0.1 mg ml^−1) provided the enzyme source for EROD catalysis, in the presence or absence of drug, in order to determine inhibition of CYP1A1 activity by compounds 1, 2, 2a, 2b, 3, 3a, 3b, 4, 4a and 4b. Incubation mixtures were pre-incubated for 5 min at 37°C before initiation of reaction by addition of NADPH (500 μM). Following further incubations at 37°C (30 min for cell homogenates, 15 min for CYP1A1 microsomes), reactions were terminated by addition of 3 ml ice-cold acetonitrile. […] Fluorescence was read on a Perkin-Elmer LS-5 luminescence spectrometer (excitation, 530 nm; emission 585 nm). Estimation of resorufin reaction product (pmoles mg^−1 protein, pmoles 100 μg^−1 microsomes), as a measure of CYP1A1 activity, was determined following performance of a resorufin standard curve.

OVCAR-4 = assay: NCI in vitro cytotoxicity assay (SRB), OVCAR-4; type: cell-based; details: Homo sapiens, 48 h exposure, sulforhodamine B assay, mean graph, read-out: Log10 GI50 (OVCAR-4) (converted)
Protocol: as §1

| SMILES | GI50 (MOLT-4) [µM] | GI50 (HS 578T) [µM] | GI50 (HOP-92) [µM] | GI50 (MDA-MB-231/ATCC) [µM] | GI50 (IGROV1) [µM] | GI50 (ACHN) [µM] | GI50 (COLO 205) [µM] | GI50 (HCT-116) [µM] | GI50 (OVCAR-3) [µM] | GI50 (SR) [µM] | GI50 (NCI-H226) [µM] | GI50 (SNB-19) [µM] | GI50 (SN12C) [µM] | also measured |
| --- | --- | --- | --- | --- | --- | --- | --- | --- | --- | --- | --- | --- | --- | --- |
| Cc1cc(-c2nc3cc(F)ccc3s2)ccc1N [Compound 2, 2-(4-Amino-3-methylphenyl)-5-fluorobenzothiazole] | > 100 | 46.8 | 36.3 | 17.4 | < 0.01 | 30.2 | 66.1 | 15.8 | 24.5 | < 0.01 | < 0.01 | 26.3 | 74.1 | GI50 (CAKI-1): 25.7 µM; GI50 (KM12): 69.2 µM; GI50 (SF-295): 20.9 µM; Persistence of plasma concentrations sufficient for cytocidal activity against human mammary carcinoma cells [1]: > 6 h; GI50 (NCI-H522): 28.8 µM |
| Cc1cc(-c2nc3cc(F)ccc3s2)ccc1NC(=O)[C@@H](N)CCCCN [Compound 2b] | 1 | 3.63 | 15.1 | 3.55 | < 0.01 | 6.03 | 3.31 | 2.88 | 10.7 | 0.562 | 0.155 | 13.5 | 12.3 | Growth of breast and ovarian xenografts [2]: suppresses significantly; GI50 (HCC-2998): 0.741 µM; Concentration giving maximum induction of EROD activity [3]: 1000 nM; GI50 (OVCAR-4): 2.04 µM |
